According to US20110160266A1, “Novel Anti-Arrhythmia Agent” (THE UAB RESEARCH FOUNDATION, priority 2008, published 2011):
“And” between values parts separate entries of the source, which are not always exact repeats. Equal values may be shown once. Where a name gives a salt, the structure may show the parent alone. Marks after values point to notes of the source that are not given here. Each block holds one compound with its values, some of them ahead of it.

Legend:
isolated rat left atria = assay: Pharmacological activation of spontaneous tachycardic activity (STA): calcium-loading agents with or without 2-APB
Protocol: Male Sprague-Dawley rats (325-400 g) were anesthetized with intra-peritoneal pentobarbital (0.1 g/kg). Their right and left atria were isolated, superfused at 30° C. in Krebs-Henseleit buffer, and nearly isometric forces of contraction were measured from these muscles (Wolkowicz et al., 2002). 2-APB was prepared as a 150 mM dimethyl sulfoxide stock.
Left atria (n=8 per group) were paced at 3 Hz and (i) titrated with 0 to 30 nM isoproterenol (Ahlquist, 1970) or (ii) exposed to 3 μM forskolin (Laurenza et al., 1980). Left atrial force and frequency of contraction, the time to peak tension and relaxation times were recorded after a 3-5 min exposure to forskolin or to any concentration of isoproterenol. The 3 Hz pacing stimulus was interrupted at the end of these protocols to measure SMA. […]
Left atrial contraction and relaxation times were recorded at these five times, the pacing stimulus was stopped and rates of SMA were recorded. […] Atrial mechanical function was measured at these four times; the pacing stimulus then was stopped and rates of SMA were recorded.
Left atria (n=6 per group) were paced at 3 Hz, titrated with 0 to 300 nM (−)BayK 8644 ([…]-1,4-Dihydro-2,6-dimethyl-5-nitro-4-[2-(trifluormethyl)phenyl]-3-pyridinecarboxylic acid methyl ester; Franckowiak et al. 1985) or FPL-64176 (2,5-Dimethyl-4-[2-(phenylmethyl)benzoyl]-1H-pyrrole-3-carboxlic acid methyl ester); Zheng et al., 1991) and their mechanical function and rates of SMA were recorded after a 5 min exposure to any concentration of slow calcium channel activator.
Atrial mechanical function was recorded at this time; the pacing stimulus then was stopped and rates of SMA were recorded. […]
Left atria (n=7) were paced at 3 Hz, treated with 120 μM ouabain (Illanes and Marshall, 1964), and any change in mechanical function was recorded at a new steady state, ˜10 min later. […]

[1] = test system: isolated, superfused rat left atria
Protocol: Left atria were isolated from male Sprague-Dawley rats (325 to 400 g) under IP pentobarbital anesthesia (0.1 g/kg). Isolated left atria were superfused at 30° C. in Krebs-Henseleit (KH) buffer of the following mM composition: NaCl, 118; NaHCO3, 27; KCl, 4.8; MgSO4, 1.2; KH2PO4, 1.0; CaCl2, 1.8; and glucose, 11.1. Nearly isometric left atrial forces of contraction were measured as described.
Isolated superfused left atria were paced at 3 Hz. 2-APB was added to atrial superfusates from 0.015 or 0.15M DMSO stock solutions to achieve concentrations of 0, 2, 7.5, 15, or 22 μM (n=5 to 10 atria per concentration). Changes in atrial mechanical force were recorded during a subsequent 15 min superfusion.
Two groups of 5 to 6, 3 Hz paced atria were superfused in KH and exposed to 0 or 15 μM 2-APB for 10 min. The pacing stimulus was interrupted for 5 min and the number of spontaneous mechanical events (SMEs), defined as increases in mechanical force occurring in the absence of pacing, were measured as was the postrest potentiation response (PRP).
To determine whether diastolic interval affected the interaction between 2-APB and left atria, atrial pacing was decreased to 0.1 Hz, and 0, 7.5, or 22 μM 2-APB was added to the superfusate (n=6-8 per group). Superfusions continued for 15 min, and changes in atrial mechanical function were observed.
To establish whether SMA was reversible, atria (n=7) were paced at 0.1 Hz, exposed to 15 μM 2-APB for 10 min, and washed with KH. The effect of removing 2-APB on atrial mechanical function was recorded.

[2] = test system: right ventricular muscle strips and right ventricular papillary muscles; assay: Ventricular muscle model of SMA; set-up: species or system rats; settings: added to the superfusate in appropriate amounts; paced at 0.5 Hz
Excerpt: To further establish this model as a general test for arrhythmic and anti-arrhythmic agents, right ventricular muscle strips and right ventricular papillary muscles were isolated from anesthetized rats using methods known to persons skilled in the art. These muscles were then superfused as described above and paced at 0.5 Hz.

rat left atria [3] = test system: rat left atria
Protocol: The initial potentiated beat following prolonged rest (i.e., the PRP maximum force of contraction) reflects activator calcium available for SR release. The PRP response was used to obtain an indirect measure of left atrial SR calcium under our conditions.
Left atria (n=6) were superfused in KH, paced at 0.1 Hz, and subjected to PRP. Superfusion proceeded for another 35 min, and a second PRP was performed. These 2 forces were compared to assure the mechanical stability of our preparations.
One group (n=8) was superfused in KH, paced at 0.1 Hz, and their maximum force of contraction was measured.
A second group (n=8) was paced at 0.1 Hz in KH and subjected to PRP. They were exposed to 22 μM 2-APB and, after the appearance of SMA, were washed with KH containing 22 μM 2-APB and 82 mM sodium. Superfusion continued for 23 min and a second PRP was performed.
Control 0.1 Hz paced atria (n=8) were subjected to PRP and exposed to 400 μM DIDS, and a second PRP was performed 23 min later.
A group of atria (n=8) were paced at 0.1 Hz in KH and subjected to PRP. They were exposed to 22 μM 2-APB, 400 μM DIDS was added to the superfusate after the appearance of SMA, and a second PRP was performed 23 min later.

rat left atria [4] = assay: Suppression of STA induced by 2-APB plus BayK 8644 or isoproterenol in left atria
Protocol: 3 Hz-paced left atria (n=9 per group) were superfused (i) in Krebs-Henseleit alone or (ii) they were treated with 20 μM 2-APB for 10 min, (iii) with 300 nM BayK 8644 for 10 min and with 20 μM 2-APB for 10 min, or (iv) they were treated with 300 nM BayK 8644 and 20 μM 2-APB for 10 min, then with 70 μM zatebradine (3-[3-[[2-(3,4-Dimethoxyphenyl)ethyl]methyl amino]propyl]-1,3,4,5-tetrahydro-7,8,-dimethoxy-2H-3-benzazepin-2-one hydrochloride) for 10 min (Baruscotti et al., 2005). Pacing was interrupted at these times and rates of SMA were recorded.
(§1) Left atria (n=9) were paced at 0.1 Hz, treated with 300 nM BayK 8644 for 5 min, then with 20 μM 2-APB for 10 min, and the pacing stimulus was stopped. These preparations then were incubated with six increasing concentrations of zatebradine (10-100 μM) for 3-5 min at each concentration, and rates of SMA were recorded. Untreated right atria (n=9) also were titrated with zatebradine and its effect on contraction frequency was recorded.
To test whether zatebradine affects left atrial force of contraction, two groups of left atria (n=9 per group) were paced at 3 Hz and treated with 300 nM BayK 8644. Five minutes later one group was incubated with six increasing concentrations of zatebradine (10-100 μM) for 3-5 min at each concentration, and forces of contraction were recorded. A second group was treated with BayK 8644 but not zatebradine, and forces of contraction were recorded at corresponding times.
(§2) To test whether zatebradine affects the SMA occurring in the presence of 2-APB and isoproterenol, left atria (n=7) were paced at 0.1 Hz, treated with 30 nM isoproterenol for 5 min, then with 20 μM 2-APB for 10 min, and the pacing stimulus was stopped. Rates of SMA were recorded, these left atria were exposed to 70 μM zatebradine for 10 min, and rates of SMA were recorded again. A group of right atria (n=7) also were exposed to 30 nM isoproterenol for 5 min and then to 70 μM zatebradine for 10 min. Right atrial contraction frequency was recorded at these two times.
(§3) To test whether ZD-7288, an If inhibitor structurally unrelated to zatebradine (Baruscotti et al., 2005; Sanders et al., 2006) affects the SMA occurring in the presence of 2-APB and BayK 8644, rat left atria (n=7) were treated with 300 nM BayK 8644 for 5 min, then with 20 μM 2-APB for 10 min, and the rates of ectopic activity were recorded. These atria then were incubated with six increasing concentrations of ZD-7288 (10-100 μM) for 3-5 min at each concentration, and the rates of SMA were recorded. Right atria (n=7) were titrated similarly with ZD-7288 (0-100 μM) and the change in their contraction frequency was recorded.
In these experiments, a 2-APB model system was used to simulate tachycardic abnormal automaticity. Specifically, superfused left atria were treated sequentially with 300 nM BayK 8644, an activator of voltage-dependent calcium entry, which loads myocytes with calcium, and then with 2-APB (20 μM) to activate the putative myocyte system for abnormal automaticity. […] SKF-96365 (10 μM) was added to the superfusate. SKF-96365 reversed STA in these left atria within 2-3 min and the muscle became quiescent in the absence of pacing (FIG. 34, “Rest”).
Additional experiments determined the concentration-dependence of SKF-96365 inhibition of STA. These experiments were performed as described above except that various concentrations of SKF-96365 were added to the left atrial superfusate (about 10-70 μM). Exposing left atria to various concentrations of SKF-96365 reversed STA (FIG. 35).

rat right atria = assay: Right atrial spontaneous contraction frequency
Protocol: as §1, §2, §3

[5] = 2-APB values obtained during SMA, mean ± SEM

Compound: NCCOB(c1ccccc1)c1ccccc1 [2-APB, 2-aminoethoxydiphenyl borate]
rate of tachycardic response, Pre-washing (isolated rat left atria; 300 nM BayK 8644 and 20 μM 2-APB): 224±12 contractions/min
rate of SMA/STA in the absence of pacing (isolated rat left atria; 20 μM 2-APB alone or with 30 nM isoproterenol, 3 μM forskolin, 300 nM BayK 8644, 300 nM FPL-64176 or 120 μM ouabain): 47±6 contractions/min and ~50 contractions/min
T0.5R (time to 50% relaxation) (isolated rat left atria; concentrations per footnote): 35.9 msc
T0.9R (time to 90% relaxation) (isolated rat left atria; concentrations per footnote): 68.4 msc
TPT (time to peak tension) (isolated rat left atria; concentrations per footnote): 57.5 msc
SMA Rate (isolated rat left atria; spontaneous atrial mechanical events, concentrations per footnote): 47^‡ SMEs per minute
rate of tachycardic response, Post-washing (isolated rat left atria; washed with superfusate containing slow calcium channel activator but no 2-APB, 5 min later): 0.7±0.4 contractions/min
reversibility of SMA on removing 2-APB from the superfusate ([1]; 0.1 Hz, 15 μM 2-APB, washed with KH, data not shown): restored regular atrial mechanical function
T0.5R (time to 50% relaxation) [1, 5]: 35 ± 0.8 ms
T0.9R (time to 90% relaxation) [1, 5]: 74 ± 0.8 ms
TPT (time to peak tension) [1, 5]: 59 ± 1.6 ms
2-APB concentration giving numerous SMEs during rest and a blunted post-rest response ([1]; 3 Hz paced, 2-APB 10 min, then 5 min rest): ≥ 15 µM
2-APB concentration giving intermittent SMEs ([1]; atria paced at 0.1 Hz): ≤ 10 µM
2-APB concentration giving repeated SMEs giving way to sustained SMA ([1]; atria paced at 0.1 Hz): > 15 µM
2-APB concentration producing sporadic/intermittent spontaneous mechanical events ([1]; left atria paced at 3 Hz, 5 to 10 min of exposure): > 10 µM and > 7.5 µM
induction of ventricular SMA [2]: ventricular SMA was observed
maximum force of left atrial contraction vs values before the addition of 2-APB (rat left atria [3]): significantly decreased

Compound: c1ccc(B(OB(c2ccccc2)c2ccccc2)c2ccccc2)cc1 [DPBA, diphenyl boronic anhydride]
induction of ventricular SMA [2]: ventricular SMA was observed

IC50 (rat left atria [4]; Rattus norvegicus, intact left atria exposed to BayK 8644 and 2-APB, linear decrease): 58 ± 5 µM
IC50 (rat right atria; Rattus norvegicus, untreated right atria titrated with zatebradine, read-out: IC50 for decrease of right atrial contraction frequency): 12 ± 1.1 µM
Compound: COc1ccc(CCN(C)CCCN2CCc3cc(OC)c(OC)cc3CC2=O)cc1OC [zatebradine, 3-[3-[[2-(3,4-Dimethoxyphenyl)ethyl]methylamino]propyl]-1,3,4,5-tetrahydro-7,8,-dimethoxy-2H-3-benzazepin-2-one hydrochloride]
effect on STA initiated by BayK 8644 and 2-APB (rat left atria [4]; 300 nM BayK 8644 + 20 μM 2-APB, zatebradine 70 μM, ZD-7288 10-100 μM, SKF-96365 about 10-70 μM): significantly decreases
effect on left atrial force of contraction (rat left atria [4]; 300 nM BayK 8644, 10-100 μM zatebradine): does not affect left atrial force of contraction
left atrial force of contraction, % of initial force (rat left atria [4]; 3 Hz-paced, 300 nM BayK 8644, titrated with 10-100 μM zatebradine): 95±3.8 % of initial force
rate of appendage STA with zatebradine (rat left atria [4]; isoproterenol + 2-APB + 70 μM zatebradine for 10 min): 110±24.5 contractions/min
right atrial contraction frequency (rat right atria; 30 nM isoproterenol, then 70 μM zatebradine for 10 min): 212±9.7 contractions/min
maximum decrease of right atrial contraction frequency (rat right atria; zatebradine titration): ~50%
